This is an account of results in patent publication US6645490B2, “Chimeric proteins with cell-targeting specificity and apoptosis-inducing activities” (priority 1998, dated 2003).

The test system of series [1] is Human peripheral blood lymphocytes. The series can be described thus: Assay for identifying apoptotic cells, FACS of fresh lymphocytes. In kind it is cell-based. The arrangement: unit not given here. The settings on record: for M1-2 / M1 / M2: Experiment No. 1; for M1 / M2 / UL / UR: mean of duplicates; for UL + UR / UL / UR: Experiment No. 2. On the procedure:
Human peripheral blood lymphocytes from healthy donors were separated using Ficoll-Isopaque gradient (1.077) (Pharmacia) and used immediately. Lymphocytes were cultured in 5% CO2 in air in RPMI 1640 medium supplemented with 10% fetal calf serum, 200 μg/ml L-glutamate, 50 μg/ml penicillin, 50 μg/ml streptomycin, 50 μg/ml glutamine and 5×10^−5 M 2-β mercaptoethanol. Increasing concentrations of IL2-Bax (insoluble fraction, 6M Gu-HCl treated) were added to the lymphocytes for 22 hr. Cells were then stained with:
A. Propidium Iodide (PI, 3.5 μg/ml)
B. Propidium Iodide with a detergent for measuring cell cycle (0.7 ml of the PI buffer: 50 μg/ml PI, 0.1% Nacitrate, 0.1% Triton×100, were added to a cell pellet of ˜10^6 cells). Cells were then analyzed by FACS.

A further series has as its system MT-1 cells. The series can be described thus: Cytotoxicity assay, [3H] leucine incorporation (inhibition of protein synthesis). The format is cell-based, human. To be noted: MT-1, IL2R-expressing; FIG. 5A. On the procedure: (§1) Cells (10^4 in 0.2 ml culture medium) were seeded in 96-well microplates, followed by the addition of various concentrations of the chimeric protein (diluted with 0.25% BSA in PBS). After a 24 hour incubation, [^3H] leucine (2-5 uci/well) were added for 6-13 hr. The plates were then stored at −70° C. for several hours, followed by quick thawing at 37° C. This step was omitted with targets cells growing in suspension. The cells were harvested on filters and the incorporated radioactivity was measured with a β counter. Results were expressed as the percent incorporation of the control experiments in which the cells were not exposed to any protein. All assays were carried out in triplicates.
(§2) The cytotoxic activity of the IL2-Bax chimeric protein was tested on HUT102 and MT-1 cells (human T-cell lines), and 2B4 cells (mouse T-cells); all known to express the high affinity receptor for IL2, by a quantitative assay, in which inhibition of protein synthesis was measured. The soluble and insoluble fractions generated from treatment under three different conditions were tested in cytotoxicity assays as described by Lorberboum-Galski et al. (1988, J. Biol. Chem. 263:18650-18656). […] This may be attributed to the different number of IL2R expressed on each cell line. […]

Series [2] deals with HUT102 cells. The series is described as above. The settings on record: HUT102, IL2R-expressing; FIG. 5A. The format is cell-based, human. On the procedure: as §1, §2
The test system of another series is Km3. The description is as above. To be noted: Km3, IL2R negative; FIG. 5B. In kind it is cell-based, human. On the procedure: as §1
(§3) The effects of IL2-Bax were also tested on various IL2R negative cells: CEM cells (a human T-cell line lacking the IL2R) and Km3 (a human non-T, non-B stem cell line). […] Since the fraction treated with Gu-HCl was active without any non-specific cytotoxicity, this fraction was further used in subsequent experiments.

The test system of series [3] is CEM cells. The description is as above. In kind it is cell-based, human. The settings on record: lacking the IL2R, FIG. 5B. The method, then: as §1, §3
The test system of the next series is 2B4 cells. Described as above. To be noted: 2B4, IL2R-expressing; FIG. 5A. In kind it is cell-based, mouse. On the procedure: as §1, §2
Series [4] has as its system HUT102 cells. Description: Assay for identifying apoptotic cells, FACS (PI fluorescence of nuclei). In kind it is cell-based, human. To be noted: highest concentration tested, overnight. On the procedure: (§4) HUT102 cells (target T cells) and CEM cells (non-target T cells) were incubated overnight with increasing concentrations of IL2-Bax. The 200×g centrifuged cell pellet was fixed in 2 ml cold 70% ethanol at 4° C. for 60 min. The cells were then centrifuged, washed in 1 ml PBS and resuspended in 0.5 ml PBS. 0.5 ml RNAse (Type I-A, Sigma, St. Louis, Mo., 1 mg/ml in PBS) was added to the sample, followed by gentle mixing with 1 ml PI (Sigma, 100 μg/ml PBS) solution. The mixed cells were incubated in the dark at room temperature for 15 min. and kept at 4° C. in the dark until measured. The PI fluorescence of the individual nuclei was measured using FACS flow cytometer. The forward scatter and side scatter of particles were simultaneously measured. Cell debris were excluded from analysis by appropriately raising the forward scatter threshold (Nicoletti et al., 1991, J. Immunol. Meth. 139:271-279).

Series [5] concerns CEM cells. Described as above. The format is cell-based, human. The settings on record: CEM cells lacking IL2R expression; FIGS. 9A-9C. On the procedure: as §4

For the molecule `C[C@@H]1C[C@H]2[C@@H]3CCC4=CC(=O)C=C[C@]4(C)[C@@]3(F)[C@@H](O)C[C@]2(C)[C@@]1(O)C(=O)CO` [dexamethasone, reference compound], in series [1] (dexamethasone (10^-7 M)), the M1-2 worked out at 6.7, the M1 amounted to 9.5 and the M2 came to 2.8.

As for IL2-Bax, the “Cytotoxic activity (inhibition of protein synthesis)” value is “responsive to the chimeric protein in a dose dependent manner” in the series on MT-1 cells; “responsive to the chimeric protein in a dose dependent manner” in the series with HUT102 cells [2]; “unaffected” with Km3; “unaffected” with CEM cells [3]; “responsive to the chimeric protein in a dose dependent manner” in the series on 2B4 cells. Besides, in the series with HUT102 cells [4], the “Increase in the percentage of the apoptotic-cell population (sub-G1, M1)” value came to 3.6 fold. Moreover, in the series on CEM cells [5], the “Increase in the apoptotic cell population” value is listed as “did not show an increase in the apoptotic cell population”. The M1-2 in series [1] (1 μg, 22 hr) came to 13.5; in series [1] (5 μg, 22 hr), 20; in series [1] (10 μg, 22 hr), 35. Besides, the M1 is 17.5 in series [1] (1 μg, 22 hr); 24.3 in series [1] (5 μg, 22 hr); 42.1 in series [1] (10 μg, 22 hr). Besides, the M2 in series [1] (1 μg, 22 hr) is given as 4; in series [1] (5 μg, 22 hr), 4.3; in series [1] (10 μg, 22 hr) it was 9.1. Besides, the “UL + UR” value in series [1] (1 μg, 22 hr) came out at 10.54; in series [1] (10 μg, 22 hr) it was 31.55. The UL in series [1] (1 μg, 22 hr) worked out at 4.98; in series [1] (10 μg, 22 hr), 14.71. Besides, the UR worked out at 5.56 in series [1] (1 μg, 22 hr) and 16.84 in series [1] (10 μg, 22 hr).
